The source of these data is patent US20080051463A1, “ANTHRACENE COMPOUNDS AND THEIR USE FOR TREATING BENIGN AND MALIGNANT TUMOR DISORDERS” (AETERNA ZENTARIS GmbH, priority 2006, published 2008).

As usually defined, the EC50 is the concentration needed to bring the measured effect to its halfway point.

Experiment [1] relates to T1, porcine brain tubulin.
T1 construct: In addition to tubulin, the protein used comprises about 15% of associated proteins (MAPs)
Kind of experiment: Inhibition of the polymerization of porcine brain tubulin (turbidimetric). The experiment is classed as biochemical. The conditions noted are these: porcine brain tubulin with about 15% MAPs, GTP, 37° C. The protocol:
b) In an in vitro test, the compounds 1, 2, 4 and 7 were tested for inhibition of the polymerization of porcine brain tubulin. In this test, tubulin purified by polymerization and depolymerization cycles is used (Shelanski et al. Proc. Natl. Acad. Sci. U.S.A. 1973, 70, 765-768 modified according to Vater et al. Acta Histochem. Suppl. 1986, 33, 123-129), which is polymerized by addition of GTP and heating to 37° C. In addition to tubulin, the protein used comprises about 15% of associated proteins (MAPs). The measurement values were determined turbidimetrically according to Gaskin et al. J. Mol. Biol. 89 (1974) 737-755.
Table 3 states the EC50 value of the polymerization inhibition.

Experiment [2] concerns human cervical carcinoma cell line KB/HeLa. Kind of experiment: Proliferation test (cellular dehydrogenase activity), KB/HeLa. The format is cell-based. The text has this: (§1) The antiproliferative activity of the compounds 1, 2, 4, 6, 7, 9, 10, 11, 12 and 13 according to the invention was investigated in a proliferation test performed on established tumor cell lines (D. A. Scuderio et al. Cancer Res. 1988, 48: 4827-4833).
(§2) The test used determines the cellular dehydrogenase activity and makes it possible to determine cell viability and determine cell number indirectly.
(§3) The cell lines used are the human cervical carcinoma cell line KB/HeLa (ATCC CCL17), the ovarian adenocarcinoma cell line SKOV-3 (ATCC HTB77), the human glioblastoma cell line SF-268 (NCI-503138) and the lung carcinoma cell line NCI-H460 (NCI-503473). In addition, an RKOp27 cell system was used for investigating the cell cycle-specific effect of the substance (M. Schmidt et al. Oncogene 2000, 19(20): 2423-9).

Experiment [3] has as its system ovarian adenocarcinoma cell line SKOV-3. Kind of experiment: Proliferation test (cellular dehydrogenase activity), SK-OV-3. The format is cell-based. The conditions noted are these: Homo sapiens.
Source text: as §1, §2, §3

The target in experiment [4] is T2, complete recombinant KIF5A (Homo sapiens, UniProt Q12840).
T2 construct: Here, use was made of complete recombinant KIF5A
T2 sequence (Q12840 1-1032): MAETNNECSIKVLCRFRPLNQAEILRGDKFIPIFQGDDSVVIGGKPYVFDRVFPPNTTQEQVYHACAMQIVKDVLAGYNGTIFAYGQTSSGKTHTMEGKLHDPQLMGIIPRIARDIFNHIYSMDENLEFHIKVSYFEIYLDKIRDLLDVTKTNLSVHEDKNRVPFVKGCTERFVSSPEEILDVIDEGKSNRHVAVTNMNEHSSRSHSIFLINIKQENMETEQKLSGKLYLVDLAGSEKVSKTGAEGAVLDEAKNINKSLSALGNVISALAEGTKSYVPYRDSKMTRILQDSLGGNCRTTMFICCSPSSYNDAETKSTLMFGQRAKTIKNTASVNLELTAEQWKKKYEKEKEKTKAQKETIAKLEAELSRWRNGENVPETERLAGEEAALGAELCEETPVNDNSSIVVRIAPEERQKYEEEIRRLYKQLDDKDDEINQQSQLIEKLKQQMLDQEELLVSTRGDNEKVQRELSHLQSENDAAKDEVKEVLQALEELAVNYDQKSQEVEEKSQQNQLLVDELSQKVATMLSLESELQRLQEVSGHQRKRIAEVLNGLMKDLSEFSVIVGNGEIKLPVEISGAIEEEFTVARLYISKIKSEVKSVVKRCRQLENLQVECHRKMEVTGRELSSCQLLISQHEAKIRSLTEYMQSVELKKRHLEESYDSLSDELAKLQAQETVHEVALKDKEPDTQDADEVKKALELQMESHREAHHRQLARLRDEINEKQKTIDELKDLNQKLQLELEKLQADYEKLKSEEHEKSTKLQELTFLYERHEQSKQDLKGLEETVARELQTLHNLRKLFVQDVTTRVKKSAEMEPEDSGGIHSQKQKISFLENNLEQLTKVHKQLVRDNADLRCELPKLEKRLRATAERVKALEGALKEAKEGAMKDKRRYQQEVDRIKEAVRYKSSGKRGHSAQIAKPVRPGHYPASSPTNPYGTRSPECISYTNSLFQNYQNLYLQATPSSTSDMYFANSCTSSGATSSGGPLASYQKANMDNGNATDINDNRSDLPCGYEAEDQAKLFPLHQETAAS
Nature of the experiment: Inhibition of KIF5A ATPase activity (end-point assay). The conditions noted are these: microtubulus-activatable ATPase. The experiment is classed as biochemical. As for the experimental part:
In an in vitro test, compound 1 was examined for inhibition of KIF5A ATPase activity. Here, use was made of complete recombinant KIF5A (Niclas J, Navone F, Hom-Booher N, Vale R D Neuron 1994, 12:1059-1072).
The activity of the microtubulus-activatable ATPase was determined by end-point assay. For tubulin isolation and preparation of the microtubuli see citations in Example II) b).
Table 6 states the EC50 value of the ATPase inhibition of KIF5A by compound 1 according to the invention.

Each structure is given as a SMILES string. ≈ marks a conversion by molar mass, not a printed value.

Turning to `O=C(C=C1c2ccccc2C(=O)c2ccccc21)c1ccc(O)c(O)c1` [Compound 1, 10-[2-(3,4-dihydroxy-phenyl)-2-oxo-ethylidene]-10H-anthracen-9-one], the “EC50 of the polymerization inhibition” value in experiment [1] is 3.0 µg/mL. Moreover, the EC50 in experiment [2] is 0.091 µg/mL (≈ 0.266 µM); in experiment [3], 0.053 µg/mL (≈ 0.155 µM); in experiment [4], 61.9 µM.
